Assay results as given in PubChem BioAssay AID1918949 (Molecular Pharmacology Branch, DTP, NCI, 2023).
pIC50: −log10 of the molar value. Values joined by “and” are separate entries in the source; they are usually repeats but may differ in a detail not shown here. Identical values can stand only once.

Tested on: K24384-001-R-PDC complex spheroid viability
Assay: Anticancer human tumor K24384-001-R-PDC patient-derived pancreatic adenocarcinoma cell line growth inhibition
Conditions: for viability, T/C: stronger effect = lower value
Outline: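 Multicellular complex spheroids of tumor cells with human endothelial cells (HUVEC) and mesenchymal stem cells; the LSD1 inhibitor iadademstat was combined with standard-of-care or investigational agents. Top concentration at or near clinical Cmax, half-log dilutions; final DMSO ≤0.25%.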

[1] = curve of first compound, second compound 0.1 µM
[2] = curve of first compound, second compound 0.316 µM
[3] = curve of first compound, second compound 1 µM
[4] = curve of first compound, second compound 3.16 µM
[5] = curve of first compound, second compound 10 µM
[6] = second compound 0.1 µM, first compound 0.0316 µM
[7] = second compound 0.1 µM, first compound 0.1 µM
[8] = second compound 0.1 µM, first compound 0.316 µM
[9] = second compound 0.1 µM, first compound 1 µM
[10] = second compound 0.1 µM, first compound 3.16 µM
[11] = second compound 0.1 µM, first compound 10 µM
[12] = second compound 0.316 µM, first compound 0.0316 µM
[13] = second compound 0.316 µM, first compound 0.1 µM
[14] = second compound 0.316 µM, first compound 0.316 µM
[15] = second compound 0.316 µM, first compound 1 µM
[16] = second compound 0.316 µM, first compound 3.16 µM
[17] = second compound 0.316 µM, first compound 10 µM
[18] = second compound 1 µM, first compound 0.0316 µM
[19] = second compound 1 µM, first compound 0.1 µM
[20] = second compound 1 µM, first compound 0.316 µM
[21] = second compound 1 µM, first compound 1 µM
[22] = second compound 1 µM, first compound 3.16 µM
[23] = second compound 1 µM, first compound 10 µM
[24] = second compound 3.16 µM, first compound 0.0316 µM
[25] = second compound 3.16 µM, first compound 0.1 µM
[26] = second compound 3.16 µM, first compound 0.316 µM
[27] = second compound 3.16 µM, first compound 1 µM
[28] = second compound 3.16 µM, first compound 3.16 µM
[29] = second compound 3.16 µM, first compound 10 µM
[30] = second compound 10 µM, first compound 0.0316 µM
[31] = second compound 10 µM, first compound 0.1 µM
[32] = second compound 10 µM, first compound 0.316 µM
[33] = second compound 10 µM, first compound 1 µM
[34] = second compound 10 µM, first compound 3.16 µM
[35] = second compound 10 µM, first compound 10 µM
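Also: spheroids exposed to agents for seven days before luminescence viability reading.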
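For viability, T/C in this document: 100% = DMSO vehicle control viability.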

Structure (SMILES): CC(C)c1c(-c2ccccc2)nc2c(C#N)c[nH]n2c1=O + NC1CCC(NC2CC2c2ccccc2)CC1
- pIC50 [1]: < 5.00
- pIC50 [2]: < 5.00
- pIC50 [3]: < 5.00
- pIC50 [4]: < 5.00
- pIC50 [5]: < 5.00
- viability, T/C [6]: 78.2%
- viability, T/C [7]: 80.2%
- viability, T/C [8]: 77.7%
- viability, T/C [9]: 77.3%
- viability, T/C [10]: 81.4%
- viability, T/C [11]: 81%
- viability, T/C [12]: 78.3%
- viability, T/C [13]: 70.4%
- viability, T/C [14]: 85.8%
- viability, T/C [15]: 72.2%
- viability, T/C [16]: 77.1%
- viability, T/C [17]: 87.5%
- viability, T/C [18]: 72.5%
- viability, T/C [19]: 67.4%
- viability, T/C [20]: 96.3%
- viability, T/C [21]: 75.3%
- viability, T/C [22]: 75%
- viability, T/C [23]: 97.4%
- viability, T/C [24]: 73%
- viability, T/C [25]: 81.5%
- viability, T/C [26]: 82.5%
- viability, T/C [27]: 71%
- viability, T/C [28]: 75%
- viability, T/C [29]: 77.9%
- viability, T/C [30]: 77.2%
- viability, T/C [31]: 74.7%
- viability, T/C [32]: 80.2%
- viability, T/C [33]: 76.6%
- viability, T/C [34]: 80.1%
- viability, T/C [35]: 83.6%

Structure (SMILES): Cn1ncnc1C1c2n[nH]c(=O)c3cc(F)cc(c23)NC1c1ccc(F)cc1 (configuration not stated) + NC1CCC(NC2CC2c2ccccc2)CC1
- pIC50 [1]: < 7.00
- pIC50 [2]: < 7.00
- pIC50 [3]: < 7.00
- pIC50 [4]: < 7.00
- pIC50 [5]: < 7.00
- viability, T/C (second compound 0.1 µM, first compound 0.000316 µM): 92.4%
- viability, T/C (second compound 0.1 µM, first compound 0.001 µM): 115%
- viability, T/C (second compound 0.1 µM, first compound 0.00316 µM): 81.7%
- viability, T/C (second compound 0.1 µM, first compound 0.01 µM): 88.6%
- viability, T/C [6]: 80%
- viability, T/C [7]: 73.7%
- viability, T/C (second compound 0.316 µM, first compound 0.000316 µM): 96.5%
- viability, T/C (second compound 0.316 µM, first compound 0.001 µM): 92.8%
- viability, T/C (second compound 0.316 µM, first compound 0.00316 µM): 104%
- viability, T/C (second compound 0.316 µM, first compound 0.01 µM): 93.5%
- viability, T/C [12]: 104%
- viability, T/C [13]: 72.4%
- viability, T/C (second compound 1 µM, first compound 0.000316 µM): 104%
- viability, T/C (second compound 1 µM, first compound 0.001 µM): 100%
- viability, T/C (second compound 1 µM, first compound 0.00316 µM): 89.5%
- viability, T/C (second compound 1 µM, first compound 0.01 µM): 88.7%
- viability, T/C [18]: 84.8%
- viability, T/C [19]: 70.2%
- viability, T/C (second compound 3.16 µM, first compound 0.000316 µM): 92.9%
- viability, T/C (second compound 3.16 µM, first compound 0.001 µM): 95.2%
- viability, T/C (second compound 3.16 µM, first compound 0.00316 µM): 94.6%
- viability, T/C (second compound 3.16 µM, first compound 0.01 µM): 98.5%
- viability, T/C [24]: 98.6%
- viability, T/C [25]: 82.1%
- viability, T/C (second compound 10 µM, first compound 0.000316 µM): 85.6%
- viability, T/C (second compound 10 µM, first compound 0.001 µM): 105%
- viability, T/C (second compound 10 µM, first compound 0.00316 µM): 94.7%
- viability, T/C (second compound 10 µM, first compound 0.01 µM): 103%
- viability, T/C [30]: 83.1%
- viability, T/C [31]: 91.6%

Structure (SMILES): COc1ccc([C@@H](O)c2cc(-c3ncnc4cc(N5CCOCC5)ccc34)c(F)cc2Cl)nn1 + NC1CCC(NC2CC2c2ccccc2)CC1
- pIC50 [1]: 5.98
- pIC50 [2]: 5.93
- pIC50 [3]: 5.95
- pIC50 [4]: 5.93
- pIC50 [5]: 6.29
- viability, T/C [6]: 94.5%
- viability, T/C [7]: 114%
- viability, T/C [8]: 89.8%
- viability, T/C [9]: 49%
- viability, T/C [10]: 30.2%
- viability, T/C [11]: 14.2%
- viability, T/C [12]: 112%
- viability, T/C [13]: 87.4%
- viability, T/C [14]: 69.6%
- viability, T/C [15]: 59.8%
- viability, T/C [16]: 30.8%
- viability, T/C [17]: 13.9%
- viability, T/C [18]: 79.7%
- viability, T/C [19]: 98.3%
- viability, T/C [20]: 79.2%
- viability, T/C [21]: 50.4%
- viability, T/C [22]: 28.4%
- viability, T/C [23]: 13.4%
- viability, T/C [24]: 77.7%
- viability, T/C [25]: 102%
- viability, T/C [26]: 77.9%
- viability, T/C [27]: 55%
- viability, T/C [28]: 23.9%
- viability, T/C [29]: 14.7%
- viability, T/C [30]: 71.3%
- viability, T/C [31]: 74.8%
- viability, T/C [32]: 56.7%
- viability, T/C [33]: 37.7%
- viability, T/C [34]: 22.9%
- viability, T/C [35]: 12.1%

Structure (SMILES): CC(C)c1c(-c2ccccc2)nc2c(C#N)c[nH]n2c1=O + NC1CC1c1ccc(-c2cccc(O)c2)cc1
- pIC50 [1]: < 5.00
- pIC50 [2]: < 5.00
- pIC50 [3]: < 5.00
- pIC50 [4]: < 5.00
- pIC50 [5]: < 5.00
- viability, T/C [6]: 84%
- viability, T/C [7]: 114%
- viability, T/C [8]: 71%
- viability, T/C [9]: 86.7%
- viability, T/C [10]: 73.1%
- viability, T/C [11]: 76.3%
- viability, T/C [12]: 119%
- viability, T/C [13]: 84.1%
- viability, T/C [14]: 65.9%
- viability, T/C [15]: 86%
- viability, T/C [16]: 90.8%
- viability, T/C [17]: 74.8%
- viability, T/C [18]: 82.3%
- viability, T/C [19]: 62.7%
- viability, T/C [20]: 72.6%
- viability, T/C [21]: 65%
- viability, T/C [22]: 70.1%
- viability, T/C [23]: 69.8%
- viability, T/C [24]: 85.5%
- viability, T/C [25]: 79%
- viability, T/C [26]: 91.4%
- viability, T/C [27]: 66.9%
- viability, T/C [28]: 67.3%
- viability, T/C [29]: 72.2%
- viability, T/C [30]: 78.8%
- viability, T/C [31]: 86.2%
- viability, T/C [32]: 84.8%
- viability, T/C [33]: 76.5%
- viability, T/C [34]: 70.8%
- viability, T/C [35]: 76.8%

Structure (SMILES): CC(C)CC(NC(=O)CNC(=O)c1cc(Cl)ccc1Cl)B1OC(=O)CC(CC(=O)O)(C(=O)O)O1 (configuration not stated)
- viability, T/C (compound 0.000316 µM): 100% and 107%
- viability, T/C (compound 0.001 µM): 103% and 86.3%
- viability, T/C (compound 0.00316 µM): 91.3% and 79.2%
- viability, T/C (compound 0.01 µM): 42.1% and 59.8%
- viability, T/C (compound 0.0316 µM): 4.17% and 4.53%
- viability, T/C (compound 0.1 µM): 0.95% and 1.47%
- pIC50 (curve of compound): 8.08 and 7.95

Structure (SMILES): Nc1ncn(C2CC(O)C(CO)S2)c(=O)n1 (configuration not stated) + NC1CCC(NC2CC2c2ccccc2)CC1
- pIC50 [1]: < 6.52
- pIC50 [2]: < 6.52
- pIC50 [3]: < 6.52
- pIC50 [4]: < 6.52
- pIC50 [5]: < 6.52
- viability, T/C (second compound 0.1 µM, first compound 0.000949 µM): 92.8%
- viability, T/C (second compound 0.1 µM, first compound 0.003 µM): 85.4%
- viability, T/C (second compound 0.1 µM, first compound 0.00949 µM): 93%
- viability, T/C (second compound 0.1 µM, first compound 0.03 µM): 70.1%
- viability, T/C (second compound 0.1 µM, first compound 0.0949 µM): 78.1%
- viability, T/C (second compound 0.1 µM, first compound 0.3 µM): 63.3%
- viability, T/C (second compound 0.316 µM, first compound 0.000949 µM): 97.4%
- viability, T/C (second compound 0.316 µM, first compound 0.003 µM): 77.4%
- viability, T/C (second compound 0.316 µM, first compound 0.00949 µM): 80.6%
- viability, T/C (second compound 0.316 µM, first compound 0.03 µM): 79.7%
- viability, T/C (second compound 0.316 µM, first compound 0.0949 µM): 85.1%
- viability, T/C (second compound 0.316 µM, first compound 0.3 µM): 59.5%
- viability, T/C (second compound 1 µM, first compound 0.000949 µM): 82.2%
- viability, T/C (second compound 1 µM, first compound 0.003 µM): 78.1%
- viability, T/C (second compound 1 µM, first compound 0.00949 µM): 105%
- viability, T/C (second compound 1 µM, first compound 0.03 µM): 78.5%
- viability, T/C (second compound 1 µM, first compound 0.0949 µM): 73.5%
- viability, T/C (second compound 1 µM, first compound 0.3 µM): 65.2%
- viability, T/C (second compound 3.16 µM, first compound 0.000949 µM): 98.1%
- viability, T/C (second compound 3.16 µM, first compound 0.003 µM): 97.9%
- viability, T/C (second compound 3.16 µM, first compound 0.00949 µM): 85%
- viability, T/C (second compound 3.16 µM, first compound 0.03 µM): 75%
- viability, T/C (second compound 3.16 µM, first compound 0.0949 µM): 81.7%
- viability, T/C (second compound 3.16 µM, first compound 0.3 µM): 48.5%
- viability, T/C (second compound 10 µM, first compound 0.000949 µM): 90.3%
- viability, T/C (second compound 10 µM, first compound 0.003 µM): 98.6%
- viability, T/C (second compound 10 µM, first compound 0.00949 µM): 71.2%
- viability, T/C (second compound 10 µM, first compound 0.03 µM): 79.5%
- viability, T/C (second compound 10 µM, first compound 0.0949 µM): 69.5%
- viability, T/C (second compound 10 µM, first compound 0.3 µM): 61.9%
